From patent US20260209222A1, “CBL-B MODULATORS AND USES THEREOF” (Nimbus Clio, Inc., priority 2022, published 2026)

Columns and labels:
[1] = tested on: Recombinant human c-Cbl (aa 47-435); experiment: c-Cbl Biochemical Assay (TR-FRET); conditions: ratio from the Cbl-b and c-Cbl TR-FRET biochemical assays
Description: c-Cbl Biochemical Assay (TR-FRET)
Recombinant human c-Cbl (aa 47-435) was expressed in E coli, purified and biotinylated in vitro. The protein was diluted to 12 nM in freshly prepared assay buffer consisting of 50 mM HEPES, pH 7.0, 100 mM NaCl, 5 mM MgCl2, 0.01% Triton-X 100, 0.01% BSA and 1 mM DTT. Recombinant human Src (aa 254-536)-GSSGSS-Zap-70 (aa 281-297) fusion protein was expressed in E coli and purified. Protein was diluted in assay buffer to 5-20 nM and ATP was added to 1 mM. Recombinant human UBE2D2(C85K) was expressed in E coli, purified and ubiquitinated and Bodipy labelled in vitro. Protein was diluted to 200 nM in assay buffer without MgCl2 (or Cisbio PPI buffer). Streptavidin-Terbium was added to 2 nM and EDTA to 10 mM, to provide a binding assay mix. Compounds were dissolved in DMSO and diluted to prepare a ten-point half log dilution series. 100 nl of each compound concentration was dispensed in duplicate in a 384 well black assay plate using acoustic dispensing. Wells for maximum signal controls received 100 nl of DMSO only and wells for minimum controls received 100 nl of a reference inhibitor compound at a final assay concentration of 100 mM to produce 100% inhibition. 5 μl of diluted c-Cbl enzyme was added to all wells of the assay plate and incubated at RT for 30 min. The enzyme assay was initiated by addition of 5 d of Src-Zap/ATP mix to all wells, and the plate incubated at RT for 60-90 min. The enzyme reaction was terminated and the binding reaction was initiated by adding 10p of binding assay mix to all wells and incubating the plate at RT for 60 min prior to assay read. Final assay conditions consisted of 6 nM c-Cbl. 2.5-10 nM Src-Zap70, 0.5 mM ATP. 1% (v/v) DMSO (enzyme reaction) and 100 nM UBE2D2(C85K)-Ub-FL-BODIPY, 5 mM EDTA, 1 nM Streptavidin-Tb (binding reaction). The HTRF assay signal was measured at 520 nm on an Envision plate reader, with reference signal at 485 or 620 nm. Data was normalized using maximum and minimum assay controls: % Inhibition=100−(100*((maximum control)−unknown)/(maximum control−minimum control)). A 4-parameter dose-response equation was used to fit the normalized dose-response data and derive an IC50 for test compounds.

[2] = target: T1, Recombinant human Cbl-b (aa 36-427) (Homo sapiens, UniProt Q13191); experiment: Cbl-b Biochemical Assay (TR-FRET); conditions: 6 nM Cbl-b, 1-2.5 nM Src-Zap70, 0.5 mM ATP; HTRF signal at 520 nm
T1 construct: Recombinant human Cbl-b (aa 36-427) was expressed in E coli; biotin (biotinylated in vitro); made in house; host or cells: E. coli
T1 sequence (Q13191 36-427): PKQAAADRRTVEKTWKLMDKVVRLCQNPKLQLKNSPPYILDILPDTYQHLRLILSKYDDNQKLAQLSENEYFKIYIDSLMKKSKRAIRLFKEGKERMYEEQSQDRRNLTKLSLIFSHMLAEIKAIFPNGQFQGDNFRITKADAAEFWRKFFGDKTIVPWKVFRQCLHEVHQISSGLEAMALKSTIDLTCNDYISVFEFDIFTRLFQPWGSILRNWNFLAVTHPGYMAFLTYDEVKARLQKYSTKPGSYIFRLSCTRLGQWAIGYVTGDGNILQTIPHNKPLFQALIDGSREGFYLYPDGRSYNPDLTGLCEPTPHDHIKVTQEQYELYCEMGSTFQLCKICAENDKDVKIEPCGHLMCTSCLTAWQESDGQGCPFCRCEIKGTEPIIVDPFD
Description: Cbl-b Biochemical Assay (TR-FRET)
Recombinant human Cbl-b (aa 36-427) was expressed in E coli, purified and biotinylated in vitro. The protein was diluted to 12 nM in freshly prepared assay buffer consisting of 50 mM HEPES, pH 7.0, 100 mM NaCl, 5 mM MgCl2, 0.01% Triton-X 100, 0.01% BSA and 1 mM DTT. Recombinant human Src (aa 254-536)-GSSGSS-Zap-70 (aa 281-297) fusion protein was expressed in E coli and purified. Protein was diluted in assay buffer to 2-5 nM and supplemented with ATP to 1 mM. Fluorescein-BODIPY labeled UBED2D(C85K)-Ub was prepared by conjugating ubiquitin (Ub) labeled at its N-terminus with Fluorescein-BODIPY maleimide (ThermoFisher Catalog no B10250) to E coli expressed and purified UBED2D(C85K) [see Dou et al Nature Structural and Molecular Biology 8: 982-987, 2013]. Recombinant human UBE2D2(C85K) was expressed in E coli, purified and ubiquitinated and Bodipy labelled in vitro. Protein was diluted to 200 nM in assay buffer without MgCl2 (or Cisbio PPI buffer). Streptavidin-Terbium was added to 2 nM and EDTA to 10 mM, to provide a binding assay mix. Compounds were dissolved in DMSO and diluted to prepare a ten-point dilution series. 100 nl of each compound concentration was dispensed in duplicate in a 384 well black assay plate using acoustic dispensing. Wells for maximum signal controls received 100 nl of DMSO only and wells for minimum signal controls received 100 nl of a reference inhibitor compound at a final assay concentration of 100 mM to produce 100% inhibition. 5 μl of diluted Cbl-b enzyme was added to all wells of the assay plate and incubated at RT for 30-60 min. The enzyme assay was initiated by addition of 5 μl of Src-Zap/ATP mix to all wells, and the plate incubated at RT for 60 min. The enzyme reaction was terminated and the binding reaction was initiated by adding 10p of binding assay mix to all wells and incubating the plate at RT for 60 min prior to assay read. Final assay conditions consisted of 6 nM Cbl-b, 1-2.5 nM Src-Zap70, 0.5 mM ATP, 1% (v/v) DMSO (enzyme reaction) and 100 nM UBE2D2(C85K)-Ub-FL-BODIPY, 5 mM EDTA, 1 nM Streptavidin-Tb (binding reaction). The HTRF assay signal was measured at 520 nm on an Envision plate reader, with reference signal at 485 or 620 nm. Data was normalized using maximum and minimum assay controls: % Inhibition=100−(100*((maximum control)−unknown)/(maximum control−minimum control)). A 4-parameter dose-response equation was used to fit the normalized dose-response data and derive an IC50 for test compounds.

| SMILES | Cbl-b/c-Cbl Selectivity [1] | IC50 [2] [nM] |
| --- | --- | --- |
| Cn1cnnc1[C@]1(c2cccc(-c3nc4cc(CN5CCC6(CC6)C5)cc(C(F)(F)F)c4o3)c2)C[C@H](C)C1 [I-9, 5-{5-Azaspiro[2.4]heptan-5-ylmethyl}-2-{3-[(1r,3s)-3-methyl-1-(4-methyl-1,2,4-triazol-3-yl)cyclobutyl]phenyl}-7-(trifluoromethyl)-1,3-benzoxazole] | 18 | < 200 |
| CCNc1cc(-c2cc(C#N)ccc2-c2nncn2C)cc(-c2nc3cc(CNCC4(C#N)CCCC4)cc(C(F)(F)F)c3o2)n1 [I-4] | 8 | 200 to 5000 |
| Cn1cnnc1-c1ccc(C#N)cc1-c1cc(NC[C@@H](O)CC#N)nc(-n2cc3c(C(F)(F)F)cc(CN4CCC5(CCC5)C4)cn3c2=O)c1 [I-50, (S)-3-(2-(6-((6-Azaspiro[3.4]octan-6-yl)methyl)-3-oxo-8-(trifluoromethyl)imidazo[1,5-a]pyridin-2(3H)-yl)-6-((3-cyano-2-hydroxypropyl)amino)pyridin-4-yl)-4-(4-methyl-4H-1,2,4-triazol-3-yl)benzonitrile] | 21 | < 200 |
| C[C@H]1CCCN(Cc2cc(C(F)(F)F)c3oc(-c4cccc([C@H](c5nncn5C)C5COC5)c4)nc3c2)C1 [I-52] | 7 | 200 to 5000 |
| Cn1cnnc1[C@@H](c1cccc(-c2nc3cc(CN4CCC5(CCC5)C4)cc(C(F)(F)F)c3o2)c1)[C@H]1C[C@@H](C(F)(F)F)C1 [I-63] | 13 | 200 to 5000 |
| Cn1cnnc1[C@H](c1cccc(-c2nc3cc(CN4CCC5(CCC5)C4)cc(C(F)(F)F)c3o2)c1)[C@H]1C[C@@H](C(F)(F)F)C1 [I-60] | 1 | > 5000 |
| Cn1cnnc1-c1ccc(C#N)cc1-c1cc(NCCC#N)nc(-c2nc3cc(CN4CCC5(CC5)C4)cc(C(F)(F)F)c3o2)c1 [I-16, 3-[2-(5-{5-azaspiro[2.4]heptan-5-ylmethyl}-7-(trifluoromethyl)-1,3-benzoxazol-2-yl)-6-[(2-cyanoethyl)amino]pyridin-4-yl]-4-(4-methyl-1,2,4-triazol-3-yl)benzonitrile] | 7 | 200 to 5000 |
| C[C@H]1CCCN(Cc2cc(C(F)(F)F)c3oc(-c4cccc(C(c5nncn5C)C5COC5)c4)nc3c2)C1 (stereo partly drawn) [I-51] | 7 | 200 to 5000 |
| Cn1cnnc1[C@@H](c1cccc(-c2nc3cc(CN4CCC5(CCC5)C4)cc(C(F)(F)F)c3o2)c1)[C@H]1C[C@H](C(F)(F)F)C1 [I-61] | – | > 5000 |
| Cn1cnnc1-c1ccc(C#N)cc1-c1cc(NCCC#N)nc(-c2nc3cc(CNCC(C)(C)O)cc(C(F)(F)F)c3o2)c1 [I-15, 3-{2-[(2-Cyanoethyl)amino]-6-(5-{[(2-hydroxy-2-methylpropyl)amino]methyl}-7-(trifluoromethyl)-1,3-benzoxazol-2-yl)pyridin-4-yl}-4-(4-methyl-1,2,4-triazol-3-yl)benzonitrile] | 7 | < 200 |
| CO[C@H]1CCCN(Cc2cc(C(F)(F)F)c3oc(-c4cccc([C@]5(c6nncn6C)C[C@@H](C)C5)c4)nc3c2)C1 [I-6, 5-{1[(3S)-3-Methoxypiperidin-1-yl]methyl}-2-{3-[(1r,3s)-3-methyl-1-(4-methyl-1,2,4-triazol-3-yl)cyclobutyl]phenyl}-7-(trifluoromethyl)-1,3-benzoxazole] | 10 | 200 to 5000 |
| Cn1cnnc1-c1ccccc1-c1cc(NCCCC#N)nc(-c2nc3cc(CNCC(C)(C)O)cc(C(F)(F)F)c3o2)c1 [I-55, 4-((6-(5-(((2-Hydroxy-2-methylpropyl)amino)methyl)-7-(trifluoromethyl)benzo[d]oxazol-2-yl)-4-(2-(4-methyl-4H-1,2,4-triazol-3-yl)phenyl)pyridin-2-yl)amino)butanenitrile] | 11 | < 200 |
| CO[C@@H]1CCCN(Cc2cc(C(F)(F)F)c3oc(-c4cccc([C@]5(c6nncn6C)C[C@@H](C)C5)c4)nc3c2)C1 [I-7] | 12 | 200 to 5000 |
| C[C@H]1CCCN(Cc2cc(C(F)(F)F)c3oc(-c4cccc([C@H](c5nncn5C)[C@H]5C[C@H](C(F)(F)F)C5)c4)nc3c2)C1 [I-57] | 2 | > 5000 |
| CC(C)NCc1cc(C(F)(F)F)c2oc(-c3cccc([C@]4(c5nncn5C)C[C@@H](C)C4)c3)nc2c1 [I-5, Isopropyl[(2-{3-[(1r,3s)-3-methyl-1-(4-methyl-1,2,4-triazol-3-yl)cyclobutyl]phenyl}-7-(trifluoromethyl)-1,3-benzoxazol-5-yl)methyl]amine] | 12 | 200 to 5000 |
| CN(Cc1cc(C(F)(F)F)c2oc(-c3cc(-c4cc(C#N)ccc4-c4nncn4C)cc(NCC4(CC#N)CC4)n3)nc2c1)[C@@H]1CCC[C@@H]1O [I-49] | 3 | < 200 |
| C[C@H]1CCCN(Cc2cc(C(F)(F)F)c3oc(-c4cccc([C@@H](c5nncn5C)[C@H]5C[C@@H](C(F)(F)F)C5)c4)nc3c2)C1 [I-56] | 5 | > 5000 |
| C[C@H]1CCCN(Cc2cc(C(F)(F)F)c3oc(-c4cccc([C@H](c5nncn5C)[C@H]5C[C@@H](C(F)(F)F)C5)c4)nc3c2)C1 (single isomer, unassigned) [I-59] | 19 | < 200 |
| Cn1cnnc1-c1cc(F)ccc1-c1cc(NCCC#N)nc(-c2nc3cc(CO)cc(C(F)(F)F)c3o2)c1 [I-14] | 7 | 200 to 5000 |
| Cn1cnnc1-c1cc(F)ccc1-c1cc(NC[C@@H](O)CC#N)nc(-c2nc3cc(CN4CCC5(CC5)C4)cc(C(F)(F)F)c3o2)c1 [I-29] | 14 | < 200 |
| Cn1cnnc1-c1ccc(C(F)(F)F)cc1-c1cc(NCCCC#N)nc(-c2nc3cc(CNCC4CC4)cc(C(F)(F)F)c3o2)c1 [I-54, 4-{[6-(5-{[(cyclopropylmethyl)amino]methyl}-7-(trifluoromethyl)-1,3-benzoxazol-2-yl)-4-[2-(4-methyl-1,2,4-triazol-3-yl)-5-(trifluoromethyl)phenyl]pyridin-2-yl]amino}butanenitrile; formic acid] | 7 | > 5000 |
| C[C@H]1CCCN(Cc2cc(C(F)(F)F)c3oc(-c4cccc([C@@H](c5nncn5C)C5CCC5)c4)nc3c2)C1 [I-34] | 4 | > 5000 |
| C[C@H]1CCCN(Cc2cc(C(F)(F)F)c3oc(-c4cccc([C@@H](c5nncn5C)C5COC5)c4)nc3c2)C1 [I-53] | 1 | > 5000 |
